# Measurements reported in patent US8648099B2 (Hoffmann-La Roche Inc., priority 2011, dated 2014).
# Key:
# [1] = molecular target: T1, human CB1 receptor (Homo sapiens, UniProt P21554); experiment: CB1 receptor affinity ([3H]-CP-55,940 displacement, HEK cell membranes); type: binding; conditions: displacement of [3H]-CP-55,940 at 10 μM; read-out: CB1 receptor affinity [% inhibition @ 10 μM]
# T1 construct: expressed in transfected cells; host or cells: human embryonic kidney (HEK) cells, Semliki Forest Virus system, membrane preparations
# T1 sequence (P21554 whole entry): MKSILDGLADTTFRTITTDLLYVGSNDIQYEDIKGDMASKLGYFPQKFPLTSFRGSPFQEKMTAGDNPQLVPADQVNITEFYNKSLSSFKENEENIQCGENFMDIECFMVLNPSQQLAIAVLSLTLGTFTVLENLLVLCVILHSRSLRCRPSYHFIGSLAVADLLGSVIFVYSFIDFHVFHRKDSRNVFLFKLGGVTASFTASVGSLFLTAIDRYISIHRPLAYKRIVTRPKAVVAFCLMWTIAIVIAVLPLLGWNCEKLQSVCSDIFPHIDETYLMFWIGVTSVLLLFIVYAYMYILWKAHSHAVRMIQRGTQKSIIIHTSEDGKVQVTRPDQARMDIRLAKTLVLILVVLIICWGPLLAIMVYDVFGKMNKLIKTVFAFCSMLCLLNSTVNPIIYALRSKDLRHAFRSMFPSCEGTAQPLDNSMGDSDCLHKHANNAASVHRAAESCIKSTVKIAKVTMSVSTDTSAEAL
# In short: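 HEK cell membranes transiently expressing human CB1 (Semliki Forest Virus) incubated with [3H]-CP-55,940 and compound at 10 μM. Bound and free ligand separated by glass-fibre filtration, then scintillation counting. Reported as % inhibition of radioligand binding.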
# [2] = tested on: ABCA1 protein; experiment: Detection of upregulation of ABCA1 protein in cells (ApoA-I binding, high content imaging); type: cell-based; conditions: THP-1 macrophage cells
# In short: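 PMA-differentiated THP-1 macrophages, loaded 24 h with 25 μg/ml acetylated LDL, treated 24 h with compound (0.5% DMSO final). ABCA1 read as binding of Alexa Fluor 647-ApoA-I (20 nM, 2 h, 37° C.) by confocal high-content imaging after fixation, background-subtracted; EC50 from one-site dose–response fit.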
# [3] = molecular target: T2, human CB2 receptor (Homo sapiens, UniProt P34972); experiment: CB2 receptor affinity ([3H]-CP-55,940 displacement, HEK cell membranes); type: binding; conditions: displacement of [3H]-CP-55,940 at 10 μM
# T2 construct: expressed in transfected cells; host or cells: human embryonic kidney (HEK) cells, Semliki Forest Virus system, membrane preparations
# T2 sequence (P34972 whole entry): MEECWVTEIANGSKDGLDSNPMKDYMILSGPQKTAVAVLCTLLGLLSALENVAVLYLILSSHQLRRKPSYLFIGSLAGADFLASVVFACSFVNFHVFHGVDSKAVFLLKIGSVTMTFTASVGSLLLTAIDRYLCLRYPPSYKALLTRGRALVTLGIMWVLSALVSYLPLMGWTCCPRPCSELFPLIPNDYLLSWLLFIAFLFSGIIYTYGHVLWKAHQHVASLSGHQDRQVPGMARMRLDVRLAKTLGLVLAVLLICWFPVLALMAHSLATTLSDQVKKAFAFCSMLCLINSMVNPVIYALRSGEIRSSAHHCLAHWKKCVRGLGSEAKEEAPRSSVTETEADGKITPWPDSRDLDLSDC
# In short: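 Membranes from HEK cells transiently expressing human CB2 via Semliki Forest Virus, incubated with [3H]-CP-55,940 ± compound; bound ligand separated by glass-fiber filtration and counted by scintillation. Reported as % inhibition of radioligand binding at 10 μM compound.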
Structure (SMILES),inhibition at 10 µM [1] [%],"EC50 ([2]; 24 hrs compound incubation, read-out: EC50 [μM] ABCA1 protein increasing efficacy) [µM]",inhibition at 10 µM [3] [%],"% increase of ABCA1 at 3 μM ([2]; compound at 3 μM, 24 hrs) [%@ 3 μM]"
"O=C(NN1CCOCC1)c1cnc(OCC(F)(F)F)c(C2CCCC2)c1 [Example 14, 5-cyclopentyl-N-morpholino-6-(2,2,2-trifluoroethoxy)-3-pyridinecarboxamide]",19,1.08,9,–
"CN(NC(=O)c1cnc(OCC(F)(F)F)c(C2CC2)c1)c1ccncc1 [Example 49, 5-cyclopropyl-6-(2,2,2-trifluoro-ethoxy)-nicotinic acid N′-methyl-N′-pyridin-4-yl-hydrazide]",13,–,3,>45
